The results in this text go back to patent publication US20110008304A1, “USE OF CELLS TO FACILITATE TARGETED DELIVERY OF NANOPARTICLE THERAPIES” (KANSAS STATE UNIVERSITY RESEARCH FOUNDATION, priority 2007, published 2011).

The test system of one data set is L1210 tumor cells. The data set is described as follows: MTS:PMS viability assay at day 4 in vitro, L1210. The data set is classed as cell-based. As to conditions: MTS:PMS assay at day 4 in vitro, means ± SD, n = 3.
Another data set concerns HL-60 tumor cells. Kind of data set: MTS:PMS viability assay at day 4 in vitro, HL-60. The settings on record: MTS:PMS assay at day 4 in vitro, means ± SD, n = 3. The data set is classed as cell-based.
In a further data set the test system is LL/2 tumor cells. Kind of data set: MTS:PMS viability assay at day 4 in vitro, LL/2. The data set is classed as cell-based. The settings on record: MTS:PMS assay at day 4 in vitro, means ± SD, n = 3.
The test system of a further data set is Pan 02 cells. The data set is described as follows: Pan 02 cell viability, MTT assay. The class given is cell-based, mouse. How it is done: Cell proliferation evaluation. The number of viable cells was evaluated by the MTT ([…]-2,5-diphenyl-tetrazolium bromide) assay (Roche Diagnostics GmbH, Germany) as well as hemocytometer and trypan blue exclusion analysis. Pan 02 cells were seeded in a 96 well plate. […] After incubation for 48 hrs, the medium was replaced with fresh medium containing 0.5 mg of MTT reagent per ml of medium and incubated for four hours at 37° C. Then, 100 μL of solubilization reagent was added to each well and incubated overnight at 37° C. Absorbance was measured in an ELISA plate reader at 550 nm, with the absorbance at 690 nm to correct for background, and viability was expressed as the percentage of untreated controls. To validate the MTT assay, trypan blue exclusion and hemocytometer counting assay was performed in parallel. All experiments were done in duplicate and were performed three times.
Statistical analysis. All values are expressed as means ±SE. Values of untreated cells were taken as […]. Statistical analysis of all Pan 02 cell proliferation assays were analyzed using repeated measures of ANOVA. […] Statistical significance was considered if P<0.05.

Data set [1] in a line: Solubility in water / encapsulation. The class given is physicochemical.
The subject of the next data set is TK+UCMS cells. The data set is described as follows: Cell number of TK+UCMS cells exposed to pro-drug. The class given is cell-based. The settings on record: dose range of 0 μM to 1600 μM. From the text:
UCMS cells have been successfully engineered for stable expression of HSV-thymidine kinase. […] Thus, the suicide gene system is effective; after GCV administration to mice bearing tumors into which the UCMS-NG-TH (UCMS cells containing nanogels loaded with therapeutic agents) have trafficked, the NG-TH will be released into the tumor interstitium when the stem cells undergo apoptosis.

A further data set deals with HL-60. The data set is described as follows: NCI 60 human tumor cell lines, SRB protein assay, HL-60. The data set is classed as cell-based. The settings on record: HL-60, SRB protein assay after 2 days; read-out: GI50 (growth inhibition at 50%). From the text:
(§1) An analog of AQ10, AQ9 (NSC 727286), has been evaluated by NCI's 60 human tumor cell lines using the SRB protein assay to estimate cell growth and viability after 2 days. […] AQ10 is less cytotoxic than AQ9 in L1210 and HL60 cell lines (Table 1).
Background: Sulforhodamine B stains cellular protein and so reports cell mass.

For a further data set, the system named is MOLT-4. The data set is described as follows: NCI 60 human tumor cell lines, SRB protein assay, MOLT-4. The class given is cell-based. The settings on record: MOLT-4, SRB protein assay after 2 days; read-out: GI50 (growth inhibition at 50%).
Source text: as §1

The subject of another data set is SR. Kind of data set: NCI 60 human tumor cell lines, SRB protein assay, SR. The class given is cell-based. As to conditions: SRB protein assay after 2 days, read-out: GI50 (growth inhibition at 50%).
Source text: as §1

The next data set deals with K562. The data set is described as follows: NCI 60 human tumor cell lines, SRB protein assay, K562. The settings on record: K562, SRB protein assay after 2 days; read-out: GI50 (growth inhibition at 50%). The class given is cell-based.
Source text: as §1

The subject of a further data set is SN12 C renal. The data set is described as follows: NCI 60 human tumor cell lines, SRB protein assay, SN12 C. The class given is cell-based. As to conditions: SRB protein assay after 2 days, read-out: GI50 (growth inhibition at 50%).
Source text: as §1

Another data set deals with HCT-116 colon. Kind of data set: NCI 60 human tumor cell lines, SRB protein assay, HCT-116. The class given is cell-based. The settings on record: SRB protein assay after 2 days, read-out: GI50 (growth inhibition at 50%).
Source text: as §1

Data set [2] deals with MDA-MB-231 breast tumor cell line. Kind of data set: NCI 60 human tumor cell lines, SRB protein assay, MDA-MB-231. The class given is cell-based. As to conditions: SRB protein assay after 2 days, read-out: GI50 (growth inhibition at 50%).
Source text: as §1
(§2) Similarly TT compounds such as TT24 were synthesized from TT2 and evaluated for their antitumor activities (Hua et al. 2004. Tetrandedron 60:10155-63, Hua et al. […], Hua et al. 2006. Anticancer Agents Med. Chem. 6:303-18, Wang et al. 2002. Cancer Lett. 188:73-83). Selective bromination of TT2 with N-bromosuccinimide (NBS) in DMF followed by addition of allylmethylamine and removal of the allyl protecting group with Pd(PPh3)4 afforded TT24. TT24 (NSC 727284-K), has been evaluated by NCI's 60 human tumor cell lines using the SRB protein assay to estimate cell growth and viability after 2 days.

The test system of data set [3] is T47D breast tumor cell line. The data set is described as follows: NCI 60 human tumor cell lines, SRB protein assay, T47D. The data set is classed as cell-based. As to conditions: SRB protein assay after 2 days, read-out: GI50 (growth inhibition at 50%).
Source text: as §2

In a further data set the test system is NCI/ADR-RES. Kind of data set: NCI 60 human tumor cell lines, SRB protein assay, NCI/ADR-RES. The data set is classed as cell-based. As to conditions: NCI/ADR-RES breast, SRB protein assay after 2 days; read-out: GI50 (growth inhibition at 50%).
Source text: as §2

For the next data set, the system named is L1210 cells. The data set is described as follows: Inhibition of L1210 cells by TT24. The data set is classed as cell-based.
Data set [4] in a line: Anti-cancer effect of drug-loaded nanogels, test not specified. The class given is cell-based.

Entries after “also recorded” stand apart in the source; their conditions may differ.

The IC50 is the concentration needed to halve the response being measured. A lower IC50 goes with higher potency. Consider `O=C1C=CC(=O)c2cc3cc(CO)ccc3cc21` [AQ10, 6-(hydroxymethyl)-1,4-anthracenedione], for which the IC50 with L1210 tumor cells (Mus musculus, L1210, 96 h) stood at 37 ± 2 nM; with HL-60 tumor cells (Homo sapiens, HL-60, 96 h), 125 ± 7 nM; in the data set with LL/2 tumor cells (LL/2, 96 h) it was 494 ± 59 nM. The “Effect of AQ10 dissolved in DMSO on Pan 02 cell viability / growth” value with Pan 02 cells (MTT assay, 48 hrs, doses of 4.2, 8.4 and 16.8 μM, vs untreated and DMSO treated cells) was “significantly attenuated; also recorded: significant effect; also recorded: significantly decreased”. In the data set with Pan 02 cells (comparison of AQ10-nanogel PEG-PEI with AQ10 alone), the “Growth attenuation of Pan 02 cells, AQ10 in nanogel PEG-PEI relative to AQ10 alone (in DMSO)” value was “three to four times less effective”. In addition, the Solubility in water entry in [1] is reported as “insoluble”.
Turning to `Nc1nc(O)c2ncn(COC(CO)CO)c2n1` [Ganciclovir], the “Cell number of TK+UCMS cells” value in the data set on TK+UCMS cells is on record as “Decreased cell number”.
By GI50 is commonly meant the concentration that inhibits growth by half. In the case of `O=C1C=CC(=O)c2cc3cc(CBr)ccc3cc21` [AQ9], the figures for the half-inhibitory concentration (IC50) with L1210 tumor cells, with HL-60 tumor cells and in the data set with LL/2 tumor cells were 26 ± 1 nM, 79 ± 3 nM and 680 ± 87 nM, respectively. Further, the GI50 with HL-60 is less than 10 nM; with MOLT-4, less than 10 nM; with SR, 37.1 nM; in the data set with K562, 339 nM; in the data set on SN12 C renal, 379 nM; with HCT-116 colon, 606 nM. In addition, the GI50 in [2] came to 735 nM.
For the molecule `CNC1=CC(=O)C2=C(C1=O)C1C3=C(C(=O)C(Br)=C(OC)C3=O)C2c2ccccc21` (stereo not shown) [TT24], the GI50 in [2] turned out to be 1410 nM; in data set [3] it was 1440 nM; with NCI/ADR-RES, 1550 nM. The molecule also yielded an IC50 in the data set with L1210 cells of 48 nM.
For the molecule Triton, in data set [4], the “Anti-cancer / antitumor effect” value is “significantly potentiated the anti-cancer effect”.
